Test results published in patent US9938281B2 (Merck Sharp & Dohme Corp., priority 2012, dated 2018).

Assays:
[1] = target: T1, PI3K-delta (Homo sapiens, UniProt O00329); assay: HTRF PI3K biochemical assay, delta isoform; details: form screened (neutral or TFA salt) given, read-out: PI3Kdelta IC50
T1 construct: purchased Upstate; Millipore 14-604

[2] = target: T2, PI3K-alpha (Homo sapiens, UniProt P42336); assay: HTRF PI3K biochemical assay, alpha isoform; details: ratio PI3K-alpha IC50 value / PI3K-delta IC50 value
T2 construct: purchased Upstate; Millipore 14-602
T2 sequence (P42336 whole entry, canonical isoform): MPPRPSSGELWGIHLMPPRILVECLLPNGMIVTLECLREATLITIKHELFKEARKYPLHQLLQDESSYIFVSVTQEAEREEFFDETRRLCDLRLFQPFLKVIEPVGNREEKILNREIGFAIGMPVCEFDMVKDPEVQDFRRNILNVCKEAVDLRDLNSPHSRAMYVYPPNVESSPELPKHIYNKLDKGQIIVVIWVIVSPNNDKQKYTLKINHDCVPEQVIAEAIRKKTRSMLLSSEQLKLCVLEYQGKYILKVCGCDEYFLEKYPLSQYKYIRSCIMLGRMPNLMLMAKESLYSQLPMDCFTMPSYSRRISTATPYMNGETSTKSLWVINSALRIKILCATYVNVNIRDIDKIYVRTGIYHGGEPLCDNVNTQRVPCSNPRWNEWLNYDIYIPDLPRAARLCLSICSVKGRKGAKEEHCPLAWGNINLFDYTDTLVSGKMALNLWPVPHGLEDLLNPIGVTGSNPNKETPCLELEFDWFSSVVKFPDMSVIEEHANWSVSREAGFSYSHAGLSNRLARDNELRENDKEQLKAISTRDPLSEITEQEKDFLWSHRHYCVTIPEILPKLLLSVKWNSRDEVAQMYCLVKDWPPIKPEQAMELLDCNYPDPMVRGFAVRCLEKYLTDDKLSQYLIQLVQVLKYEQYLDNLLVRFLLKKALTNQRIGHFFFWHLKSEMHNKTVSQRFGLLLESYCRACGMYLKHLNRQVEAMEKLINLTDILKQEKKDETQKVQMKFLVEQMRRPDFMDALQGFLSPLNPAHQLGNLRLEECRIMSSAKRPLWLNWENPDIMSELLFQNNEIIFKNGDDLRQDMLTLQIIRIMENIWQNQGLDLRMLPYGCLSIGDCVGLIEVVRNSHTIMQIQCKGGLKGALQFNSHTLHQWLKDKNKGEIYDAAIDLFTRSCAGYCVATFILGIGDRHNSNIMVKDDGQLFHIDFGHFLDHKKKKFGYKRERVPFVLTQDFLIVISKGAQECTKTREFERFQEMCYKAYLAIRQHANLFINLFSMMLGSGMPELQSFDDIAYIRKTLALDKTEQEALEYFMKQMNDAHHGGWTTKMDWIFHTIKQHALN
T2 sequence (P27986 whole entry partner, canonical isoform): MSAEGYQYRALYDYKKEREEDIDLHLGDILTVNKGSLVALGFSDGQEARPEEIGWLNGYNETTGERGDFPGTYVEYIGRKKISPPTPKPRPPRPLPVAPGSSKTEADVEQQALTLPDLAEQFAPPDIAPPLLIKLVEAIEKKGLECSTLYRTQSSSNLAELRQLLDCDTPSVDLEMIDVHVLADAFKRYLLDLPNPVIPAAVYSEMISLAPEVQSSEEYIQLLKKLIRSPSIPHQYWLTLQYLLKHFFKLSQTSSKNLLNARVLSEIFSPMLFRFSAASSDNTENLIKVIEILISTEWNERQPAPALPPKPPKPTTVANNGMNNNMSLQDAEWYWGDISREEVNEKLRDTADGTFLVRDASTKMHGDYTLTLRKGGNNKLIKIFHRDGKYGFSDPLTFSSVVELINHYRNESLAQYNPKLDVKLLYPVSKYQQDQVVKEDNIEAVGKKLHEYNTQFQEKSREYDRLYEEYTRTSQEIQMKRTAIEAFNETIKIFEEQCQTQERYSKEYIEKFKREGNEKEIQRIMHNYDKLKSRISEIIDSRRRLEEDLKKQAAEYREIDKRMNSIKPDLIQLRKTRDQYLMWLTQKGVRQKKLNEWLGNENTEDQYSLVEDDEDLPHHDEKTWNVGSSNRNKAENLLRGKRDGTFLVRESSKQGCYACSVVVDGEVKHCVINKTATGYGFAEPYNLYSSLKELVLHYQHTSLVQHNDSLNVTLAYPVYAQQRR
From the text: The PI3-Kinase biochemical assays were developed to measure the intrinsic potency and compound dependent inhibition of the alpha, beta, delta, and gamma PI3K isoform enzymes. This assay was developed and further optimized from a kit produced by Upstate (Millipore catalog #33-047) and has been configured for HTS and SAR screening. Briefly, this procedure exploits the exquisite specificity and high affinity binding of enzyme reaction substrate phosphatidyl(3,4,5)triphosphate (PIP3) to the GRP1 pleckstrin homology (PH) domain to generate the signal. In the absence of PIP3, an HTRF (Homogeneous Time-Resolved Fluorescence energy transfer) complex is formed consisting of europium (Eu)-labeled anti-GST, GSTtagged GRP1-PH domain, biotin-PIP3 and streptavidin conjugated APC. The native PIP3 produced by PI3-Kinase activity disrupts in a competitive manner the biotin-PIP3 from the PH domain, resulting in the loss of energy transfer (HTRF complex) and a decrease in the signal. The format of this assay is the same for all 4 isoforms of PI3K; the differences lie in the concentration of enzyme used to achieve robust assay window. The alpha, beta, and delta assays are run at 0.5, 1, and 0.3 nM enzymes and the gamma assay is run at 5 nM enzyme. The ATP concentration is 100 uM in the alpha, beta, and delta assays and 50 uM ATP in the gamma assay. All reactions are run at 5 uM PIP2.
Compounds are serially diluted (3-fold in 100% DMSO) across a 384-well polypropylene source plated from column 3 to column 12 and column 13 to column 22, to yield 10 concentration dose response for each test compound. Columns 1, 2, 23 and 24 contain either only DMSO or pharmacological known control inhibitor.
The PI3-Kinase biochemical assay was optimized using the HTRF kit provided by Upstate (Millipore). The assay kit contains six reagents: 1) 4× Reaction Buffer; 2) native PIP2 (substrate); 3) Stop (EDTA); 4) Detection Mix A (Streptavidin-APC); 5) Detection Mix B (Eu-labeled Anti-GST plus GST-tagged PH-domain); 6) Detection Mix C.
PI3Kinase Reaction Buffer is prepared by dilution the stock 1:4 with de-ionized water. […] Enzyme addition and compound pre-incubation are initiated by the addition of 1.25 ul of PI3K (at twice its final concentration) in the 1× reaction buffer to all wells using a BioRaptor. Plates are incubated at room temperature for 15 minutes. Reactions are initiated by addition of 1.25 ul of 2× substrate solution (PIP2 and ATP in 1× reaction buffer) using BioRaptor. Plates are incubated in humidified chamber at room temperature for one hour. Reactions are quenched by addition of 0.625 uL of stop solution to all wells using the BioRaptor. The quenched reactions are then processed to detect product formation by adding 0.625 uL of Detection Solution to all wells using the BioRaptor (Detection mix C, Detection Mix A, and Detection Mix B combined together in an 18:1:1 ratio prepared 2 hours prior to use).
The loss of the HTRF signal is due to the displacement of biotinylated-PIP3 from the PH domain by the PI3K-dependent conversion of PIP2 to PIP3. This loss of signal is nonlinear with respect to both increasing product and time. This non-linear detection will impact accuracy of IC50 calculations; therefore, there is a need for a correction factor to obtain more accurate IC50 values. This correction is derived from a PIP3 standard curve run in a separate assay plate. All data were calculated using the ratio of acceptor (APC) to donor (Europium) fluorescence in each well of the assay plate. […] An IC50 was then calculated fitting the % inhibition data to the equation: % inhibition=min+(Max−min)/1+([inhibitor]/IC50)^n) where min is the % inhibition with inhibitor, max is the signal in DMSO control, and n is the Hill slope.
The determination of relative selectivity for a given compound is defined as the relative ratio of the (PI3K-alphalC50 value/PI3K-delta IC50 value).

T1 sequence (O00329 whole entry, canonical isoform): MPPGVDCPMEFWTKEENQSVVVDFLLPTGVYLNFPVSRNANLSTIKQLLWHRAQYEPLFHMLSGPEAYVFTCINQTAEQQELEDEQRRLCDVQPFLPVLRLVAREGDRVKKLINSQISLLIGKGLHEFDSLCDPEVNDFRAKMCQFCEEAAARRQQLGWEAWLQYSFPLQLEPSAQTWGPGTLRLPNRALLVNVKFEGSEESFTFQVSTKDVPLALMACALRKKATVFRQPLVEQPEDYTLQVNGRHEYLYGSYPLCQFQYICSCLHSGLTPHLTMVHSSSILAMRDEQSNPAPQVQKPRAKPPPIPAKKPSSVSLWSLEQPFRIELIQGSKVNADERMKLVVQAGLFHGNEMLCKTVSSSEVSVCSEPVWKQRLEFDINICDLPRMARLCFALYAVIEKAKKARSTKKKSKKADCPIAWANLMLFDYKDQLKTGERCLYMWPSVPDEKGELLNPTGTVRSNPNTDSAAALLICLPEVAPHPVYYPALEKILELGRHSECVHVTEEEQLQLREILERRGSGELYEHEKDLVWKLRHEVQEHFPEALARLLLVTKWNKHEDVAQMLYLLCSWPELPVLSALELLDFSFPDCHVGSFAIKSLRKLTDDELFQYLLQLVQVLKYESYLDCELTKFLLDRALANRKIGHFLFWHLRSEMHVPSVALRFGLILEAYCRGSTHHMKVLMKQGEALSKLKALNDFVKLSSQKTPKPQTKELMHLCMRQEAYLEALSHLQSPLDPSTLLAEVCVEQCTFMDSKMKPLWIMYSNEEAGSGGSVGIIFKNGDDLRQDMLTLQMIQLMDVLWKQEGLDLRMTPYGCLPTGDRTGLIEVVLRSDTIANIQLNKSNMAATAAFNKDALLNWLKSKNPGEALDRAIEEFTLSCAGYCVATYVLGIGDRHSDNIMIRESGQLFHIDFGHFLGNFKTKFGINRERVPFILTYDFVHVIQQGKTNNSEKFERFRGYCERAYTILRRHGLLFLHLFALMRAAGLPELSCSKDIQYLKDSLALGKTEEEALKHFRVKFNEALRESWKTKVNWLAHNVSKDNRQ
T1 sequence (P27986 whole entry partner, canonical isoform): as the sequence (P27986 whole entry partner, canonical isoform) above

SMILES | IC50 [1] [nM] | Selectivity versus PI3Kalpha [2]
CCn1c(-c2cnc(C)nc2)nc2c(N[C@H]3CCN(C(=O)C4(C)CC4)C3)ncnc21 [Compound 2-47, 9-ethyl-N-{(3S)-1-[(1-methylcyclopropyl)carbonyl]pyrrolidin-3-yl}-8-(2-methylpyrimidin-5-yl)-9H-purin-6-amine] | 17 | >10
CCNC(=O)N1CCC[C@H](Nc2ncnc3c2nc(-c2cnn(CC)c2C)n3C)C1 [Compound 12-1, (3S)-N-ethyl-3-{[8-(1-ethyl-5-methyl-1H-pyrazol-4-yl)-9-methyl-9H-purin-6-yl]amino}piperidine-1-carboxamide] | 30 | >10
CCn1c(-c2cnn(CC(F)(F)F)c2)nc2c(N[C@H]3CCN(C(=O)C4CC4)C3)ncnc21 [Compound 3-36, N-[(3S)-1-(cyclopropylcarbonyl)pyrrolidin-3-yl]-9-ethyl-8-[1-(2,2,2-trifluoroethyl)-1H-pyrazol-4-yl]-9H-purin-6-amine] | 1.2 | >10
Cn1c(-c2cnc(C(C)(C)C)s2)nc2c(N[C@H]3CCN(C(=O)OC(C)(C)C)C3)ncnc21 [Compound 1-9, (S)-tert-butyl 3-((8-(2-(tert-butyl)thiazol-5-yl)-9-methyl-9H-purin-6-yl)amino)pyrrolidine-1-carboxylate] | < 1 | >10
CCC(=O)N1CC[C@H](Nc2ncnc3c2nc(-c2cnc(OC)c(C#N)c2)n3C)C1 [Compound 3-33, 2-methoxy-5-(9-methyl-6-{[(3S)-1-propanoylpyrrolidin-3-yl]amino}-9H-purin-8-yl)pyridine-3-carbonitrile] | 2.3 | >10
CCn1ncc(-c2nc3c(N[C@@H]4CCCN(C(=O)OC(C)(C)C)C4)ncnc3n2C)c1C [Compound 1-11, (R)-tert-butyl 3-((8-(1-ethyl-5-methyl-1H-pyrazol-4-yl)-9-methyl-9H-purin-6-yl)amino)piperidine-1-carboxylate] | 250 | >10
CCC(=O)N1CC[C@H](Nc2ncnc3c2nc(-c2cncc(N)c2)n3C)C1 [Compound 3-13, 8-(5-aminopyridin-3-yl)-9-methyl-N-[(3S)-1-propanoylpyrrolidin-3-yl]-9H-purin-6-amine] | 2.4 | >10
CCn1c(-c2cnc(C)nc2)nc2c(N[C@H]3CCN(c4nccc5ccccc45)C3)ncnc21 [Compound 4-9, 9-ethyl-N-[(3S)-1-isoquinolin-1-ylpyrrolidin-3-yl]-8-(2-methylpyrimidin-5-yl)-9H-purin-6-amine] | 6.6 | >10
CCC(=O)N1CC[C@H](Nc2ncnc3c2nc(-c2cnc(C(C)(C)C)s2)n3CC)C1 [Compound 2-10, (S)-1-(3-((8-(2-(tert-butyl)thiazol-5-yl)-9-ethyl-9H-purin-6-yl)amino)pyrrolidin-1-yl)propan-1-one] | < 1 | >10
CCn1c(-c2cnc(C)nc2)nc2c(N[C@H]3CCN(C(=O)C4(C)CCCO4)C3)ncnc21 (mixture of isomers) [Compound 2-68, 9-ethyl-8-(2-methylpyrimidin-5-yl)-N-{(3S)-1-[((S and R)-2-methyltetrahydrofuran-2-yl)carbonyl]pyrrolidin-3-yl}-9H-purin-6-amine] | 26 | >10
CCn1c(-c2cnc(C)nc2)nc2c(N[C@H]3CCN(C(=O)N4CCC(C)(C)C4)C3)ncnc21 [Compound 12-11, N-{(3S)-1-[(3,3-dimethylpyrrolidin-1-yl)carbonyl]pyrrolidin-3-yl}-9-ethyl-8-(2-methylpyrimidin-5-yl)-9H-purin-6-amine] | < 1 | >10
CCn1c(-c2cnc(C)nc2)nc2c(N[C@H]3CCN(C(=O)[C@@H]4C[C@@H]4C)C3)ncnc21 [Compound 2-90, 9-ethyl-N-[(3S)-1-{[(1R,2S)-2-methylcyclopropyl]carbonyl}pyrrolidin-3-yl]-8(2-methylpyrimidin-5-yl)-9H-purin-6-amine] | 1.3 | >10
CCn1c(-c2cnc(C)nc2)nc2c(N[C@H]3CCN(C(=O)C4CCOCC4)C3)ncnc21 [Compound 2-18, (S)-(3-((9-ethyl-8-(2-methylpyrimidin-5-yl)-9H-purin-6-yl)amino)pyrrolidin-1-yl)(tetrahydro-2H-pyran-4-yl)methanone] | 2.4 | >10
CCn1ncc(-c2nc3c(N[C@H]4CCN(C(=O)OC(C)(C)C)C4)ncnc3n2CC)c1C [Compound 1-14, tert-butyl (3S)-3-{[9-ethyl-8-(1-ethyl-5-methyl-1H-pyrazol-4-yl)-9H-purin-6-yl]amino}pyrrolidine-1-carboxylate] | 1.1 | >10

Other lines, results leading:

IC50 [1] [nM] | Selectivity versus PI3Kalpha [2] | SMILES
28 | >10 | CCn1c(C(F)F)nc2c(N[C@H]3CCN(c4ccccn4)C3)ncnc21 [Compound 7-26, 8-(difluoromethyl)-9-ethyl-N-[(3S)-1-pyridin-2-ylpyrrolidin-3-yl]-9H-purin-6-amine]
1.7 | >10 | CCn1c(-c2cnc(C)nc2)nc2c(NC3CN(C(=O)C4CC4)CC3C)ncnc21 (single isomer, unassigned) [Compound 2-87, N-[(3S,4R or 3R,4S)-1-(cyclopropylcarbonyl)-4-methylpyrrolidin-3-yl]-9-ethyl-8-(2-methylpyrimidin-5-yl)-9H-purin-6-amine]
4.6 | >10 | CCn1c(-c2cnc(C)nc2)nc2c(N[C@H]3CCN(C(=O)OC4CCS(=O)(=O)C4)C3)ncnc21 (mixture of isomers) [Compound 13-6, (S and R)-1,1-dioxidotetrahydrothiophen-3-yl (3S)-3-{[9-ethyl-8-(2-methylpyrimidin-5-yl)-9H-purin-6-yl]amino}pyrrolidine-l-carboxylate]
1.8 | >10 | CCn1c(-c2cncc(Cl)c2)nc2c(N[C@H]3CCN(C(=O)C4CC4)C3)ncnc21 [Compound 3-38, 8-(5-chloropyridin-3-yl)-N-[(3S)-1-(cyclopropylcarbonyl)pyrrolidin-3-yl]-9-ethyl-9H-purin-6-amine]
4.7 | >10 | CCc1ccnc(N2CC[C@H](Nc3ncnc4c3nc(-c3cnc(C)nc3)n4CC)C2)c1 [Compound 4-6, 9-ethyl-N-[(3S)-1-(4-ethylpyridin-2-yl)pyrrolidin-3-yl]-8-(2-methylpyrimidin-5-yl)-9H-purin-6-amine]
3.7 | >10 | CCn1c(-c2cnc(C)nc2)nc2c(N[C@H]3CCN(c4ccc(C)cn4)C3)ncnc21 [Compound 4-3, 9-ethyl-N-[(3S)-1-(5-methylpyridin-2-yl)pyrrolidin-3-yl]-8-(2-methylpyrimidin-5-yl)-9H-purin-6-amine]
39 | >10 | CCn1c(C(F)F)nc2c(N[C@H]3CCN(C(=O)c4ccn(C)n4)C3)ncnc21 [Compound 7-12, 8-(difluoromethyl)-9-ethyl-N-{(3S)-1-[(1-methyl-1H-pyrazol-3-yl)carbonyl]pyrrolidin-3-yl}-9H-purin-6-amine]
